Data published in patent US20240083851A1 (priority 2020, published 2024).

Assays:
[1] = system: ovariectomized (OVX) mice; assay: Ovariectomized (OVX) mice model of osteoporosis, femur bone parameters; format: in vivo; conditions: daily for 10 weeks; for BMD: femur
Description: (§1) An ability of LAD to treat osteoporosis was confirmed in an animal model of ovariectomized (OVX) mice commonly used as an animal model of osteoporosis.
(§2) As the positive control, parathyroid hormone (PTH)-based Forteo (Eli Lilly) used as an osteoporosis therapeutic agent through an osteogenesis-promoting mechanism, and alendronate-based Fosamax (Merck) serving as a bone resorption inhibitor, were subcutaneously administered. As the negative control, water (H2O) was orally administered, and LAD was orally administered at a concentration of 5 or 30 mg/kg (FIG. 8A). After the drug was administered daily for 10 weeks, the bone mineral density (BMD) was measured.

RUNX2 [2] = assay: Change in expression of RUNX2 in MSCs (antibody staining, fluorescence microscope); format: cell-based, human; conditions: 0.001 μM (1 nM), once a day for 7 and 14 days, increased with concentration up to 0.1 μM
Description: (§3) Runt-related transcription factor 2 (RUNX2; core-binding factor alpha, Cbfa1) is the most important transcriptional regulatory factor for osteogenesis, and is known to be involved in osteoblast differentiation, matrix generation, and mineralization during the osteogenesis (Bruderer M, et al., Eur Cell Mater. 2014). Also, RUNX2 itself may be regulated by a bone morphogenetic protein (BMP), which is a type of cytokine (Sun J, et al., Mol Med Rep. 2015). Accordingly, it was confirmed whether LAD promotes the expression of an osteogenesis-related specific factor to induce osteogenesis.
(§4) MSCs were seeded in a 24-well plate at a concentration of 3×10^4 cells/well, and cultured for 24 hours. From the next day, the MSCs were treated with different concentrations (0.001 μM, 0.01 μM, and 0.1 μM) of LAD once a day for 7 days and 14 days. After the experiment was completed, the MSCs were stained with RUNX2 and BMP-2 antibodies, and observed using a fluorescence microscope.

BMP-2 = assay: Change in expression of BMP2 in MSCs (antibody staining, fluorescence microscope); format: cell-based, human; conditions: 0.001 μM (1 nM), once a day for 7 and 14 days, increased with concentration up to 0.1 μM
Description: as §3, §4

osteocalcin = assay: Change in expression of osteocalcin in MSCs (antibody staining, fluorescence microscope); format: cell-based, human; conditions: 0.001 μM, within 7 days, level similar to OIM-treated group
Description: Osteocalcin is expressed only in osteoblasts (Lee et al., Cell 2007), and is used as a useful biomarker for osteogenesis (Bharadwaj et al., Osteoporosis International., 2009).
An experiment was performed in the same manner as described in Experimental Example 1-2, and MSCs were then stained with an osteocalcin antibody, and observed using a fluorescence microscope.

[3] = system: phosphorylated forms of 43 kinases (ERK, Akt, WNK1); assay: Phosphokinase antibody array in MSCs; format: cell-based, human; conditions: LAD 1 μM, 24 hours, compared to control DMSO
Description: To study a mechanism by which LAD differentiates MSCs into osteoblasts, related signaling was investigated.
MSCs cultured in an experimental DMEM culture medium were treated with LAD (1 μM) or the control compound (DMSO), and cultured for 24 hours. The cells were recovered, and an experiment was then performed according to a method specified in a phosphokinase antibody array kit (R&D Systems) containing antibodies that specifically recognize phosphorylated forms of 43 kinases. Then, samples were analyzed using an ImageJ (NIH, USA) program.

MSCs = assay: Osteoblast differentiation of MSCs with LAD plus kinase inhibitor (Alizarin Red); format: cell-based, human; conditions: LAD 1 μM combined with inhibitor (1 μM) of ERK, P38 or Akt, 3 weeks, compared to LAD alone
Description: To further study the mechanism by which LAD differentiates MSCs into osteoblasts, an experiment was performed using a kinase inhibitor.
After MSCs were cultured, the MSCs were simultaneously treated with a kinase inhibitor (1 μM) and LAD (1 μM). Next day, the medium was exchanged, and the MSCs were simultaneously treated again with the kinase inhibitor and LAD. This procedure was repeated for 3 weeks, and the MSCs were than stained with Alizarin Red.

[4] = system: phosphorylated ERK (pERK); assay: ERK phosphorylation in MSCs after LAD treatment; format: cell-based, human
Description: Accordingly, the level of phosphorylated ERK according to time elapsed after MSCs were treated with LAD was determined.
Also, to determine whether LAD induces the ERK phosphorylation for a long period, MSCs were treated with various concentrations (0.001, 0.01, and 0.1 μM) of LAD, and the level of phosphorylated ERK (pERK) was checked after 7 days and 14 days. […] In particular, it was confirmed that the level of phosphorylated ERK (pERK) increased to a level similar to that of the positive control (OIM) even at a low concentration.

RUNX2 [5] = assay: Effect of ERK inhibitor on increase in RUNX2 expression by LAD in MSCs; format: cell-based, human
Description: ERK may induce the phosphorylation of RUNX2 to increase transcriptional activity and may be involved in stability to increase an amount of RUNX2 protein (Greenblatt et al., MB, Annu Rev Cell Dev Biol. 2013). Therefore, an increase in ERK phosphorylation by LAD may induce RUNX2 expression so that LAD can be involved in the differentiation of MSCs into osteoblasts. To verify this, an expression level of RUNX2 was determined after MSCs were treated with a combination of LAD (0.1 μM) and the ERK inhibitor PD98059 (50 μM).

RUNX2 [6] = assay: RUNX2 expression in femurs of ovariectomized mice; format: in vivo; conditions: LAD oral, daily for 10 weeks
Description: as §1, §2
In Table 1, BMD represents bone mineral density, TV represents total volume, BV represents bone volume, Tb.Th represents trabecular thickness, and Tb.N represents trabecular number.

[7] = OVX mice, positive control subcutaneous

NCCCC(O)(P(=O)(O)O)P(=O)(O)O [Fosamax, reference compound]
BV [1, 7]: 1.017 mm^3
BV/TV [1, 7]: 6.521%
TV [1, 7]: 15.51 mm^3
Tb. N [1, 7]: 0.9286 mm
Tb. Th [1, 7]: 0.06994 1/mm
BMD [1, 7]: 0.2145 g/mL

CC[C@H](C)[C@H](NC(=O)[C@H](CCC(=O)O)NC(=O)[C@H](CO)NC(=O)[C@@H](NC(=O)[C@@H](N)CO)C(C)C)C(=O)N[C@@H](CCC(N)=O)C(=O)N[C@@H](CC(C)C)C(=O)N[C@@H](CCSC)C(=O)N[C@@H](Cc1cnc[nH]1)C(=O)N[C@@H](CC(N)=O)C(=O)N[C@@H](CC(C)C)C(=O)NCC(=O)N[C@@H](CCCCN)C(=O)N[C@@H](Cc1cnc[nH]1)C(=O)N[C@@H](CC(C)C)C(=O)N[C@@H](CC(N)=O)C(=O)N[C@@H](CO)C(=O)N[C@@H](CCSC)C(=O)N[C@@H](CCC(=O)O)C(=O)N[C@@H](CCCN=C(N)N)C(=O)N[C@H](C(=O)N[C@@H](CCC(=O)O)C(=O)N[C@@H](Cc1c[nH]c2ccccc12)C(=O)N[C@@H](CC(C)C)C(=O)N[C@@H](CCCN=C(N)N)C(=O)N[C@@H](CCCCN)C(=O)N[C@@H](CCCCN)C(=O)N[C@@H](CC(C)C)C(=O)N[C@@H](CCC(N)=O)C(=O)N[C@@H](CC(=O)O)C(=O)N[C@H](C(=O)N[C@@H](Cc1cnc[nH]1)C(=O)N[C@@H](CC(N)=O)C(=O)N[C@@H](Cc1ccccc1)C(=O)O)C(C)C)C(C)C [Forteo, reference compound]
BV [1, 7]: 0.8791 mm^3
BV/TV [1, 7]: 5.735%
TV [1, 7]: 15.43 mm^3
Tb. N [1, 7]: 0.8018 mm
Tb. Th [1, 7]: 0.07112 1/mm
BMD [1, 7]: 0.2013 g/mL

CCN1C[C@]2(OC(=O)c3ccccc3NC(C)=O)CC[C@H](OC)C34C1C(C[C@@H]32)C(=O)C[C@H](OC)[C@H]1C[C@@H]4C(=O)[C@H]1OC [LAD, (3S,6S,7S,9S,11S,16S)-1-ethyl-6,9,11-trimethoxy-8,13-dioxododecahydro-2H-3,6a,14-(epiethane[1,1,2]triyl)-7,10-methanocyclodeca[b]azocin-3(4H)-yl 2-acetaminobenzoate]
expression of RUNX2 (RUNX2 [2]): strongly induced
expression of BMP-2 (BMP-2): strongly induced
expression of osteocalcin (osteocalcin): strongly induced
phosphorylation of signaling molecules such as ERK, Akt, WNK1 [3]: strongly increased
osteoblast differentiation ability of LAD (Alizarin Red) (MSCs): inhibited
level of phosphorylated ERK (pERK) ([4]; MSCs, 0.001, 0.01 and 0.1 μM LAD, after 7 days and 14 days, similar to OIM even at low concentration): significantly increased
level of phosphorylated ERK (pERK) ([4]; MSCs, 24 hours after LAD treatment): increased
level of phosphorylated ERK (pERK) ([4]; MSCs, within 30 minutes after LAD treatment): significantly increased
expression of RUNX2 (RUNX2 [5]; LAD 0.1 μM alone, within 12 hours (same at 24 hours)): significantly increased
BV ([1]; OVX mice, LAD 5 mg/kg oral): 1.009 mm^3
BV/TV ([1]; OVX mice, LAD 5 mg/kg oral): 6.422%
TV ([1]; OVX mice, LAD 5 mg/kg oral): 15.6 mm^3
Tb. N ([1]; OVX mice, LAD 5 mg/kg oral): 0.8775 mm
Tb. Th ([1]; OVX mice, LAD 5 mg/kg oral): 0.205 1/mm
BMD ([1]; OVX mice, LAD 5 mg/kg oral): 0.2066 g/mL
BV ([1]; OVX mice, LAD 30 mg/kg oral): 1.17 mm^3
BV/TV ([1]; OVX mice, LAD 30 mg/kg oral): 7.036%
TV ([1]; OVX mice, LAD 30 mg/kg oral): 16.58 mm^3
Tb. N ([1]; OVX mice, LAD 30 mg/kg oral): 0.9485 mm
Tb. Th ([1]; OVX mice, LAD 30 mg/kg oral): 0.0739 1/mm
BMD ([1]; OVX mice, LAD 30 mg/kg oral): 0.2168 g/mL
bone mineral density compared to the negative control ([1]; OVX mice, LAD 5 or 30 mg/kg oral, versus water): significantly increased
effect on bone mineral density compared with Forteo ([1]; OVX mice, LAD oral versus Forteo subcutaneous): significantly superior to that of Forteo
osteogenesis in the femurs (tissue staining) ([1]; ovariectomized mice, LAD oral): induced osteogenesis
expression of RUNX2 in femurs (RUNX2 [6]): significantly increased

COc1cccc(-c2cc(=O)c3ccccc3o2)c1N [PD98059, reference compound]
expression of RUNX2 (RUNX2 [5]; combination of LAD 0.1 μM and PD98059 50 μM, 12 hours (same at 24 hours)): significantly decreased
